{"source": "paper PMC10605370", "about": "(Biomolecules, 2023)", "key": {"Human D2RL [1]": {"target": "T1, Human D2RL (Homo sapiens, UniProt P14416)", "T1 sequence (P14416 whole entry)": "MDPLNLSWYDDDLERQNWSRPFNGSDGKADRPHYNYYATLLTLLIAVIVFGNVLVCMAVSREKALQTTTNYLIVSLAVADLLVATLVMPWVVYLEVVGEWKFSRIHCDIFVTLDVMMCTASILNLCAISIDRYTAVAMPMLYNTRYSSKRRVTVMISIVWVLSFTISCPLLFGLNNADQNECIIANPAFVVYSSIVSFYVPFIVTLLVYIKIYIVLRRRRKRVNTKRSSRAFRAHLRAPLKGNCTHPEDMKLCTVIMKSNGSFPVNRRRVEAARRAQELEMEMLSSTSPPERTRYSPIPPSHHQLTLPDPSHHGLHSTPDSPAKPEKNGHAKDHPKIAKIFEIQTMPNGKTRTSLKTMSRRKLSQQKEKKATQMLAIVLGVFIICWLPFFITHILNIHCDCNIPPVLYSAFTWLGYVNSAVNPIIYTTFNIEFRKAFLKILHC", "test": "β-arrestin2 recruitment BRET assay", "assay_type": "cell-based", "settings": "dose-dependent; maximally effective concentrations (10–100 µM)"}, "PO4-null D2R": {"target": "PO4-null D2R (Rattus norvegicus, UniProt P61169)", "sequence (P61169 whole entry)": "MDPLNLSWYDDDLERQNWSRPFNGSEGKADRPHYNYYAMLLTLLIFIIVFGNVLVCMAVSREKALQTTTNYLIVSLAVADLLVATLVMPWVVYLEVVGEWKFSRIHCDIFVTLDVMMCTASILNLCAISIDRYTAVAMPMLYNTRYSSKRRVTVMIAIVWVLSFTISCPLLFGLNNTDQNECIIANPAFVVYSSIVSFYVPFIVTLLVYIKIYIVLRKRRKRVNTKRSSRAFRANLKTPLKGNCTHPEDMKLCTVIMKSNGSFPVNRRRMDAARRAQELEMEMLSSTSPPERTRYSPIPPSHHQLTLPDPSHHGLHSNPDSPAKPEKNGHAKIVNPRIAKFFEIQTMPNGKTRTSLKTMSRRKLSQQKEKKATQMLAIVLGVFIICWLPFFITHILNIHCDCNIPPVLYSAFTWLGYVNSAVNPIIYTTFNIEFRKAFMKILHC", "test": "β-arrestin2 recruitment BRET assay, PO4-null D2R", "assay_type": "cell-based", "settings": "dose-dependent (Figure 4D)"}, "other GRK isoforms": {"test_system": "other GRK isoforms", "settings": "selectively inhibits the GRK2/3 subfamily; cited from earlier work"}, "D2R–GRK2 interactions": {"test_system": "D2R–GRK2 interactions", "parameters": "method as in Pack et al., 2018 [21]", "settings": "similar BRET assay; ref Pack et al., 2018 [21]; cited from earlier work"}, "Human D2RL [2]": {"target": "T1, Human D2RL", "test": "LYN BRET receptor internalization assay", "assay_type": "cell-based", "parameters": "expressed in transfected cells; host or cells: HEK293 (parental or GRK knockout lines)", "settings": "dose-dependent; maximally effective concentration of 100 µM", "protocol": "HEK293 cells were transiently transfected with the indicated D2R-Rluc8 (35 mm plate: 0.1 μg; 100 mm plate: 0.5 μg) and LYN-rGFP (35 mm plate: 1 μg; 100 mm plate: 5 μg) constructs and the indicated GRK construct (35 mm plate: 1 μg; 100 mm plate: 5 μg) or pcDNA control."}, "Human D2RL [3]": {"target": "T1, Human D2RL", "test": "GRK2-GFP recruitment BRET assay (D2R–GRK2 interactions)", "assay_type": "cell-based", "parameters": "expressed in transfected cells; host or cells: HEK293 (parental or GRK knockout lines)", "settings": "dose-dependent (Figure 3C)"}, "Human D2RL [4]": {"target": "T1, Human D2RL", "test": "Go heterotrimer activation BRET assay", "assay_type": "cell-based", "parameters": "expressed in transfected cells; host or cells: HEK293 (parental or GRK knockout lines)", "settings": "Cmpd101 treatment of HEK293 cells", "protocol": "HEK293 cells were transiently transfected with the Gαo1-Rluc8 (35 mm plate: 0.1 μg; 100 mm plate: 0.5 μg), Gβ1 (35 mm plate: 0.9 μg; 100 mm plate: 4.5 μg), and Gγ2-mVenus (35 mm plate: 1 μg; 100 mm plate: 5 μg) constructs and the indicated untagged D2R construct (35 mm plate: 1 μg; 100 mm plate: 5 μg). […] Cells were then plated in 96-well white solid bottom plates (Greiner, Monroe, NC, USA) and incubated at room temperature for 45 min."}, "[5]": {"target": "phosphorylation-null (PO4-null) rat D2 dopamine receptor, long isoform, fused to Rluc8 (rat) (UniProt P61169)", "sequence (P61169 whole entry, the tested form may be a part, canonical isoform)": "as the sequence (P61169 whole entry) above", "test": "FRET or BRET; GRK2 recruitment BRET in live HEK293 cells transfected with D2R-Rluc8 (donor) and GRK2-rGFP (acceptor), with or without compound 101; DPBS with 200 µM sodium metabisulphite, room temperature, 2 µM Prolume Purple; dopamine for 5 min"}, "[6]": {"target": "phosphorylation-null (PO4-null) rat D2 dopamine receptor, long isoform, fused to Rluc8 (rat) (UniProt P61169)"}}}
{"molecule": "Cn1c(CNc2cccc(C(=O)NCc3ccccc3C(F)(F)F)c2)nnc1-c1ccncc1", "note": "[Cmpd101]", "values": [{"measurement": "inhibition of dopamine-stimulated β-arrestin2 recruitment to the D2R", "setting": "Human D2RL [1]", "value": "unable to completely inhibit"}, {"measurement": "decrease of β-arrestin2 recruitment to the phospho-null D2R", "setting": "PO4-null D2R", "value": "did not completely eliminate"}, {"measurement": "affinity for other GRK isoforms", "setting": "other GRK isoforms", "value": "lacks affinity"}, {"measurement": "effect on D2R–GRK2 interactions", "setting": "D2R–GRK2 interactions", "value": "no effect"}, {"measurement": "inhibition of dopamine-stimulated D2R internalization", "setting": "Human D2RL [2]", "value": "completely block"}, {"measurement": "inhibition of GRK2–D2R interactions", "setting": "Human D2RL [3]", "value": "unable to completely block"}, {"measurement": "effect on D2R signaling through G proteins (Go activation BRET assay)", "setting": "Human D2RL [4]", "value": "does not alter"}]}
{"molecule": "GRK2-rGFP (from UniProt P25098 1-689) (enzyme)", "values": [{"measurement": "Emax of dopamine-stimulated BRET (% of WT D2R)", "setting": "[5]", "value": "102 % of WT D2R"}]}
{"molecule": "β-arrestin2-mVenus (from UniProt P32121 1-409) (natural protein)", "values": [{"measurement": "dopamine-stimulated D2R internalization in HEK293 cells (LYN BRET), Emax as a percentage of WT D2R (β-arrestin not transfected in this assay)", "setting": "[6]", "value": "100 % of WT D2R"}]}
